# In BindingDB's records for doi:10.1021/jm00391a020 (1987):
# Experiment: Kinetic constant for galactosyltransferase inhibition was determined
row,SMILES,Ki
1,O=c1ccn([C@@H]2O[C@H](COP(=O)(O)OP(=O)(O)OP(=O)(O)O)[C@@H](O)[C@H]2O)c(=O)[nH]1 [uridine 5'-(tetrahydrogen triphosphate)],128 µM
2,O=c1ccn(C2O[C@H](COP(=O)(O)OP(=O)(O)C3O[C@H](CO)[C@@H](O)[C@H](O)[C@H]3O)[C@@H](O)[C@H]2O)c(=O)[nH]1 (some centres not stated),165 µM
